Data on 45 compounds can be found in patent US4725591A, “β-lactamase inhibitory composition” (Takeda Chemical Industries, Ltd., priority 1980, dated 1988).

T2 sequence (P05364 21-381): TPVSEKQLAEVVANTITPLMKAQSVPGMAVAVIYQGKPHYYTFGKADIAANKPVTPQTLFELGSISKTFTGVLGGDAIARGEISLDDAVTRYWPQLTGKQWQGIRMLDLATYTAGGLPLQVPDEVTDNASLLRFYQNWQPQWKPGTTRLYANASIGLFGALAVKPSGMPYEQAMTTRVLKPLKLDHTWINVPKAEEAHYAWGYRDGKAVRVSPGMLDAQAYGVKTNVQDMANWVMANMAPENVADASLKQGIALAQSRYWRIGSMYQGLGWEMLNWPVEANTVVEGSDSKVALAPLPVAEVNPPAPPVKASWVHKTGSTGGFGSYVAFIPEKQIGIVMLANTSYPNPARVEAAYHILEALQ

The target of the first experiment is T1, β-lactamase produced by Staphylococcus aureus 1840 (Staphylococcus aureus, UniProt P00807).
T1 construct: endogenous in cells; host or cells: Staphylococcus aureus 1840
T1 sequence (P00807 25-281): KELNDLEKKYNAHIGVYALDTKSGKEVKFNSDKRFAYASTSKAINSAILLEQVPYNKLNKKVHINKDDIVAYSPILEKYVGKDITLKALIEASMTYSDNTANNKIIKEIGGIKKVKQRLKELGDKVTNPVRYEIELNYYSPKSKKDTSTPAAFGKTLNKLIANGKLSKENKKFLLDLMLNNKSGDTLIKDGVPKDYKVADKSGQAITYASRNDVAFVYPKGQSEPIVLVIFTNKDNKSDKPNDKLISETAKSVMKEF
Nature of the experiment: Inhibitor concentration required to inhibit β-lactamase (penicillinase) activity by 50%, micro-iodometric method. It is filed as biochemical. The conditions noted are these: Staphylococcus aureus 1840 penicillinase; 0.05M phosphate buffer pH 7, 30° C., 10 minutes preincubation; cephalothin or ampicillin 0.1 mM; read-out: I50 (converted). On the procedure:
(§1) Determination of the inhibitor concentration required to inhibit the enzyme activity by 50%
(§2) The β-lactamase produced by Enterobacter cloacae IFO 12937 is used as a typical example of cephalosporinase, and that produced by Staphylococcus aureus 1840 as typical example of penicillinase. The β-lactamase in incubated is 0.05M phosphate buffer (pH 7) with an appropriate dilution of an inhibitor preparation at 30° C. for 10 minutes. Cephalothin or ampicillin is then added in an amount sufficient to produce a final concentration of 0.1 mM, and the enzymatic reaction is allowed to proceed for 10 minutes. The enzyme activity is determined by the micro-iodometric method [Journal of general Microbiology, vol. 33, page 121 (1963)]. Hereinafter, the inhibitor concentration required to inhibit the enzyme activity by 50% is expressed as I50. The I50 values for Enterobacter cloaceae are shown in Table 1, and the I50 values for Staphylococcus aureus in Table 2.
Regarding `O=C(NC(CS(=O)(=O)NC1CN(S(=O)(=O)O)C1=O)C(=O)OCc1ccccc1)OCc1ccccc1` (stereo not shown) [Compound 48], the IC50 was 3140 nM.

As for `O=C(NC1CN(S(=O)(=O)O)C1=O)C(Br)c1ccccc1` (stereo not shown), the IC50 was 493 nM.

Consider `[N-]=[N+]=NC(C(=O)NC1CN(S(=O)(=O)O)C1=O)c1ccccc1` (stereo not shown), for which the IC50 was 144 nM.

`O=C(CSc1c(Cl)cccc1Cl)N[C@@H](C(=O)NC1CN(S(=O)(=O)O)C1=O)c1ccccc1` (stereo partly shown) [Compound 46]: the IC50 was 9650 nM.

Consider `Nc1nc(CC(=O)N[C@@H](C(=O)NC2CN(S(=O)(=O)O)C2=O)c2ccccc2)cs1` (stereo partly shown) [Compound 47], for which the IC50 is 11400 nM.

In the case of `[N-]=[N+]=NC(C(=O)NC1CN(S(=O)(=O)O)C1=O)c1cccc(Cl)c1` (stereo not shown), the IC50 is 147 nM.

Consider `CS(=O)(=O)NC1CN(S(=O)(=O)O)C1=O` (stereo not shown) [Compound 52], for which the IC50 is 14300 nM.

`O=C(NC1CN(S(=O)(=O)O)C1=O)[C@H](NC(=O)N1CCNC1=O)c1cccs1` (stereo partly drawn) [Compound 45, Sodium 3-[D-2-[(2-oxoimidazolidin-1-yl)carboxamido]-2-thienylacetamido]-2-oxoazetidine-1-sulfonate]: the IC50 is 5750 nM.

On to `O=C(NC1CN(S(=O)(=O)O)C1=O)C(=O)c1ccccc1` (stereo not shown), for which the IC50 was 12500 nM.

In the case of `CCN1C(=O)C(=O)N(C(=O)N[C@@H](C(=O)NC2CN(S(=O)(=O)O)C2=O)c2cccs2)C[C@@H]1C` (stereo partly drawn) [Compound 44, Sodium 3-[D-2-(4-ethyl-5(S)-methyl-2,3-dioxo-2,3-dioxo-1-piperazinecarboxamido)-2-thienylacetamido]-2-oxoazetidine-1-sulfonate], the IC50 was 2460 nM.

For the compound `Cc1onc(-c2c(Cl)cccc2Cl)c1C(=O)N[C@@H](C(=O)NC1CN(S(=O)(=O)O)C1=O)c1cccs1` (stereo partly drawn) [Compound 25, Sodium 3-[D-2-[[3-(2,6-dichlorophenyl)-5-methylisoxazol-4-yl]-carboxamido]-2-thienylacetamido]-2-oxoazetidine-1-suflonate], the IC50 was 715 nM.

`CCOC(=O)C(C(=O)c1ccccc1)=C1SC(C(=O)NC2CN(S(=O)(=O)O)C2=O)S1` (stereo not shown) [Compound 54]: the IC50 was 2540 nM.

Another experiment addresses T2, β-lactamase produced by Enterobacter cloacae IFO 12937 (Enterobacter cloacae, UniProt P05364).
T2 construct: The β-lactamase produced by Enterobacter cloacae IFO 12937; endogenous in cells; host or cells: Enterobacter cloacae IFO 12937
The experiment is described as follows: Inhibitor concentration required to inhibit β-lactamase (cephalosporinase) activity by 50%, micro-iodometric method. The conditions noted are these: Enterobacter cloacae IFO 12937 cephalosporinase; 0.05M phosphate buffer pH 7, 30° C., 10 minutes preincubation; cephalothin or ampicillin 0.1 mM; read-out: I50 (converted). It is filed as biochemical. On the procedure:
as §1, §2
As for `COC1(NC(=O)OCc2ccccc2)CN(S(=O)(=O)O)C1=O` (stereo not shown) [Compound 30, Sodium 3-benzyloxycarboxamido-3-methoxy-2-oxoazetidine-1-sulfonate], the IC50 is 15100 nM.

As to `CCN1CCN(C(=O)NC(C(=O)NC2CN(S(=O)(=O)O)C2=O)C2=CCCCC2)C(=O)C1=O` (stereo not shown) [Compound 10], the IC50 was 4880 nM.

As to `COC1(NC(=O)C(C(=O)O)c2ccccc2)CN(S(=O)(=O)O)C1=O` (stereo not shown) [Compound 5], the IC50 was 391 nM.

Consider `CCN1CCN(C(=O)N[C@H](Cc2ccccc2)C(=O)NC2(OC)CN(S(=O)(=O)O)C2=O)C(=O)C1=O` (stereo partly shown) [Compound 7], for which the IC50 was 2150 nM.

For `COC1(NC(=O)[C@@H](C)NC(=O)OCc2ccccc2)CN(S(=O)(=O)O)C1=O` (stereo partly shown) [Compound 8], the IC50 was 7970 nM.

Turning to `CC(C)ON=C(C(=O)NC1CN(S(=O)(=O)O)C1=O)c1csc(N)n1` (stereo not shown), the IC50 was 50.1 nM.

Take `CCCCCCCCN1CCN(C(=O)NC(C(=O)NC2(OC)CN(S(=O)(=O)O)C2=O)c2cccs2)C(=O)C1=O` (stereo not shown) [Compound 2]: the IC50 was 78.3 nM.

Regarding `COC1(NC(=O)[C@H](NC(=O)N2CCN(CC=C(C)C)C(=O)C2=O)c2cccs2)CN(S(=O)(=O)O)C1=O` (stereo partly drawn) [Compound 41, Sodium 3-[D-2-[4-(3-methyl-2-butenyl)-2,3-dioxo-1-piperadinecarboxamido]-2-thienylacetamido]-3-methoxy-2-oxoazetidine-1-sulfonate], the IC50 is 120 nM.

With `COc1ccc(COC(=O)C(C(=O)NC2(OC)CN(S(=O)(=O)O)C2=O)c2ccc(O)cc2)cc1` (stereo not shown), the IC50 was 387 nM.

As to `COC1(NC(=O)C(N=[N+]=[N-])c2ccccc2)CN(S(=O)(=O)O)C1=O` (stereo not shown), the IC50 is 954 nM.

`CON=C(C(=O)NC1(OC)CN(S(=O)(=O)O)C1=O)c1csc(N)n1` (stereo not shown) [Compound 13]: the IC50 was 712 nM.

For `O=C(NC1CN(S(=O)(=O)O)C1=O)C(c1cccs1)N1C(=O)c2ccccc2C1=O` (stereo not shown) [Compound 34, Sodium 3-(2-phthalimido-2-thienylacetamido)-2-oxoazetidine-1-sulfonate], the IC50 is 873 nM.

As to `COC1(NC(=O)C(C(=O)OCc2ccccc2)c2ccccc2)CN(S(=O)(=O)O)C1=O` (stereo not shown) [Compound 4], the IC50 was 89.2 nM.

`COC1(NC(=O)C(=NOC(C)C)c2csc(N)n2)CN(S(=O)(=O)O)C1=O` (stereo not shown) [Compound 36, Sodium 3-[2-(2-aminothiazol-4-yl)-2-(1-methylethoxyimino)actamido]-3-methoxy-2-oxoazetidine-1-sulfonate]: the IC50 was 56.5 nM.

On to `CON=C(C(=O)NC1CN(S(=O)(=O)O)C1=O)c1ccccc1` (stereo not shown) [Compound 16], for which the IC50 was 15300 nM.

In the case of `CC(C)(ON=C(C(=O)NC1CN(S(=O)(=O)O)C1=O)c1csc(NC(c2ccccc2)(c2ccccc2)c2ccccc2)n1)C(=O)O` (stereo not shown) [Compound 43, Disodium 3-[2-[(1-carboxy-1-methylethoxy)imino]-2-(2-tritylaminothiazol-4-yl)acetamido]-2-oxoazetidine-1-sulfonate], the IC50 is 4820 nM.

Consider `CC(C)ON=C(C(=O)NC1CN(S(=O)(=O)O)C1=O)c1csc(N)n1` (stereo not shown) [Compound 23], for which the IC50 is 53 nM.

As to `COc1cccc(OC)c1C(=O)NC1(OC)CN(S(=O)(=O)O)C1=O` (stereo not shown) [Compound 18], the IC50 is 5000 nM.

Consider `CON=C(C(=O)NC1CN(S(=O)(=O)O)C1=O)c1nc(NC(=O)CCl)sc1Cl` (stereo not shown), for which the IC50 was 622 nM.

On to `COC1(NC(=O)[C@H](NC(=O)N2CCN(c3ccccc3)C(=O)C2=O)c2cccs2)CN(S(=O)(=O)O)C1=O` (stereo partly drawn) [Compound 39, Sodium 3-methoxy-3-[D-2-(4-phenyl-2,3-dioxo-1-piperadinecarboxamido)-2-thienylacetamido]-2-oxoazetidine-1-sulfonate], for which the IC50 was 127 nM.

Consider `CCCCCCCCN1CCN(C(=O)N[C@@H](C(=O)NC2CN(S(=O)(=O)O)C2=O)c2cccs2)C(=O)C1=O` (stereo partly drawn) [Compound 1, Sodium 3-[D-2-(4-n-octyl-2,3-dioxo-1-piperazinecarboxamido)-2-thienylacetamido]-2-oxoazetidine-1-sulfoante], for which the IC50 is 5020 nM.

With `COc1cccc(OC)c1C(=O)NC1CN(S(=O)(=O)O)C1=O` (stereo not shown), the IC50 was 7100 nM.

`O=C(NC1CN(S(=O)(=O)O)C1=O)C(OS(=O)(=O)O)c1ccccc1` (stereo not shown) [Compound 15]: the IC50 was 9460 nM.

For the compound `CNC(=O)CC(NC(=O)OCc1ccccc1)C(=O)NC1(OC)CN(S(=O)(=O)O)C1=O` (stereo not shown) [Compound 6], the IC50 is 2400 nM.

Consider `COC1(NC(=O)[C@H](NC(=O)N2CCN(CC(=O)N3CCCCC3)C(=O)C2=O)c2cccs2)CN(S(=O)(=O)O)C1=O` (stereo partly drawn) [Compound 38, Sodium 3-methoxy-3-[D-2-(4-piperidinecarbonylmethyl-2,3-dioxo-1-piperadinecarboxamido)-2-thienylacetamido]-2-oxoazetidine-1-sulfonate], for which the IC50 is 130 nM.

For `CON=C(C(=O)NC1CN(S(=O)(=O)O)C1=O)c1nc(N)sc1Cl` (stereo not shown), the IC50 was 2960 nM.

As to `COC1(NC(=O)[C@H](NC(=O)N2CCN(C(C)(C)C)C(=O)C2=O)c2cccs2)CN(S(=O)(=O)O)C1=O` (stereo partly drawn) [Compound 40, Sodium 3-[D-2-(4-t-butyl-2,3-dioxo-1-piperadinecarboxamido)-2-thienylacetamido]-3-methoxy-2-oxoazetidine-1-sulfonate], the IC50 is 124 nM.

For `COC1(NC(=O)[C@H](NC(=O)N2CCN(C3CCCCC3)C(=O)C2=O)c2cccs2)CN(S(=O)(=O)O)C1=O` (stereo partly drawn) [Compound 37, Sodium 3-[D-2-(4-cyclohexyl-2,3-dioxo-1-pipeadinecarboxamido)-2-thienylacetamido]-3-methoxy-2-oxoazetidine-1-sulfonate], the IC50 was 215 nM.

For `Cc1onc(-c2c(Cl)cccc2Cl)c1C(=O)N[C@@H](C(=O)NC1CN(S(=O)(=O)O)C1=O)c1cccs1` (stereo partly drawn) [Compound 25, Sodium 3-[D-2-[[3-(2,6-dichlorophenyl)-5-methylisoxazol-4-yl]-carboxamido]-2-thienylacetamido]-2-oxoazetidine-1-suflonate], the IC50 was 6440 nM.

On to `CCN1CCN(C(=O)NC(C(=O)NC2CN(S(=O)(=O)O)C2=O)C2=C(Cl)CCCC2)C(=O)C1=O` (stereo not shown), for which the IC50 was 5680 nM.

As to `CON=C(C(=O)NC1(OC)CN(S(=O)(=O)O)C1=O)c1csc(NC(=O)CCl)n1` (stereo not shown) [Compound 14], the IC50 is 658 nM.

For `CCN1CCN(C(=O)NC(C(=O)NC2(OC)CN(S(=O)(=O)O)C2=O)c2ccccc2)C(=O)C1=O` (stereo not shown) [Compound 11], the IC50 is 523 nM.

With `COC1(NC(=O)C(C)NC(=O)C(CS(=O)(=O)NS(=O)(=O)O)NC(=O)OCc2ccccc2)CN(S(=O)(=O)O)C1=O` (stereo not shown) [Compound 24], the IC50 was 1200 nM.

With `Cc1ccc(SN=C(C(=O)NC2CN(S(=O)(=O)O)C2=O)c2ccccc2)cc1` (stereo not shown), the IC50 was 1250 nM.
